Results reported in US20220289746A1, “PYRROLIDINE DERIVATIVES” (Hoffmann-La Roche Inc., priority 2019, published 2022).

What was measured:
human M4 receptor [1] = molecular target: T1, human M4 receptor (Homo sapiens, UniProt P08173); experiment: cAMP assay for M4 positive allosteric modulators (M4 PAM cAMP assay); assay type: cell-based; design: expressed in transfected cells; host or cells: CHO-K1; conditions: Table 1; CHO-K1 cells expressing human M4; forskolin 7.5 μM + acetylcholine EC20 (0.2 nM)
T1 sequence (P08173 1-479): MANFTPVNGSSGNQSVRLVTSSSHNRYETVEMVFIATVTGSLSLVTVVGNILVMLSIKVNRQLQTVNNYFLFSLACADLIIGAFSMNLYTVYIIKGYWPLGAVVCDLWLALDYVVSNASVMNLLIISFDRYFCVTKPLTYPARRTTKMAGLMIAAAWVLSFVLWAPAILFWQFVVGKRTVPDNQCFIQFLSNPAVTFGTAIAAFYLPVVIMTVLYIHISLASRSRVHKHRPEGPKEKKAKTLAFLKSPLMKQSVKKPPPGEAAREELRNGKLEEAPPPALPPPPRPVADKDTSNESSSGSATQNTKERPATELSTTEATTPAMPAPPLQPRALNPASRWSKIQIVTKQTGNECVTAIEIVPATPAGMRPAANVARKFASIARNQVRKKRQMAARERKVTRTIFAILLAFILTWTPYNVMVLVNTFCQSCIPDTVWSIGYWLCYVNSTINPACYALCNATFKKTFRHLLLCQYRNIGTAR
Method: The potency of M4 PAMs was determined using a cell-based cyclic adenosine monophosphate assay. The assay was performed with CHO-Kl cells stably expressing untagged human M4 receptor and cAMP was quantified using the Nano-TRF Detection Assay kit (Roche, Cat. No. 05214386) as described in the kit instructions. The cells were grown in Ham's F-12 Nutrient mix supplemented with 10% FBS and 200 μg/ml geneticin until they reached 80% confluency. The cells were washed with PBS, detached with accutase and resuspended in assay buffer consisting of HBSS and 0.1% BSA. They were then seeded in black 384-well plates (Corning, Cat. No. 3764) at a density of 20,000 cells/20 μl per well until the addition of compounds.
Test compounds were serially diluted 1:2 in 100% DMSO and spotted in 384-well plates at 0.5 μl/well. The compounds were then diluted in water containing IBMX (Sigma, Cat. No. 17018) and a sample (5 μl) was added to the cells for 15 minutes at 37° C./5% CO2. After this incubation the cells were stimulated with a combination of forskolin (7.5 μM) and acetylcholine EC20 (0.2 nM) in assay buffer for 30 minutes at 37° C./5% CO2. The assay was stopped by adding cAMP detection mix (15 μl/well, containing detergents for cell lysis) for one hour at RT.
The test plates were read using a SpectraMax i3x reader (Molecular Devices). The exported raw data was used to calculate the FRET signal based on the P-factor as per cAMP kit instructions. The data was normalized to the activity of acetylcholine plus forskolin, with 2 nM of acetylcholine plus 7.5 μM forskolin defined as 100% activity. Dose response curves were fitted to the percent activity data of the compounds using a sigmoidal dose response model (XLfit, IDBS) and the data were reported as EC50 and percent efficacy.

human M4 receptor [2] = molecular target: T1, human M4 receptor; experiment: Calcium flux assay using fluorescent imaging (M4 PAM FLIPR assay); assay type: cell-based; design: expressed in transfected cells; host or cells: CHO (monoclonal line, clone 2); conditions: Table 1; CHO cells expressing human M4+Gqi5; acetylcholine EC20
Method: CHO cells were transfected with expression plasmid encoding the human M4 receptor and a Gqi5 construct to redirect Gi signaling to calcium. Stable cells were cloned by limiting dilution to yield a monoclonal cell line expressing human M4+Gqi5 (clone 2). The stable cells were grown in DMEM containing 10% FBS, 200 ug/ml Geneticin and 800 ug/ml Hygromycin at 37° C. in a 10% CO2 incubator at 95% humidity.
Calcium Flux Assay Using Fluorescent Imaging (“M4 PAM FLIPR” Assay)
On the afternoon before the assay, cells were plated at a density of 50,000 cells/well into black 96 well plates with clear bottoms to yield a confluent monolayer the next day. Hanks balanced salt solution, without phenol red, containing 20 mM HEPES (pH 7.3) and 2.5 mM probenecid (assay buffer) was prepared fresh for each experiment. Compound dilutions were made using a Beckman Biomek 2000 laboratory automation workstation, in assay buffer. The dye-loading buffer consisted of a final concentration of 2 μM Fluo-4-AM (dissolved in DMSO and pluronic acid) and 65 μg/ml amidoblack in assay buffer. The existing culture media was removed from the wells and 100 μl of the dye-loading buffer was added to each well and incubated for approximately 90 min at 37° C. in a 5% CO2 incubator at 95% humidity.
Calcium flux in the dye-loaded cells was measured with the fluorescence reader Hamamatsu FDSS 7000. To test compounds as agonists, compound addition (25 μl) was made 10 s into the fluorescent measurements and fluorescent response was recorded for 3 minutes. The fluorescence data was expressed as percentage of the fluorescence obtained by an EC100 concentration (3 μM) of the endogenous full agonist acetylcholine. Each test compound concentration-response curve was constructed using a four parameter logistic equation in Microsoft Excel XLFit as follows:
Y=Minimum+((Maximum−Minimum)/(1+10^(LogEC50−X)nH)).
The concentration of agonist that produced a half-maximal response is represented by the EC50 value. Maximum and minimum are the maximum and minimum fluorescence signal in % respectively. nH is the Hill slope.
To measure positive allosteric modulator activity 25 μl of an EC20 concentration of the endogenous agonist acetylcholine is added to the cells already pre-incubated with the test compound for 15 minutes.
The M4 PAM dose response is constructed using the agonist dose-response equation above. The concentration of PAM that produced a half-maximal response is represented by the EC50 value and the maximum signal measured is the PAM efficacy expressed in % of the EC100 (3 μM) acetylcholine response. • cAMP Assay for M4 Positive Allosteric Modulators (“M4 PAM cAMP” Assay)

SMILES | EC50 (human M4 receptor [1]) | EC50 (human M4 receptor [2])
COc1cc(N2CC[C@@H](C(=O)N3Cc4nc(C)c(Cl)c(C)c4C3)C2)ccn1 [Example 22, (3-chloro-2,4-dimethyl-5,7-dihydropyrrolo[3,4-b]pyridin-6-yl)-[(3R)-1-(2-methoxy-4-pyridyl)pyrrolidin-3-yl]methanone] | 507 nM | 677 nM
Cc1nc2c(c(C)c1Cl)CN(C(=O)[C@@H]1CCN(c3ccnc(C(F)(F)F)n3)C1)C2 [Example 23, (3-chloro-2,4-dimethyl-5,7-dihydropyrrolo[3,4-b]pyridin-6-yl)-[(3R)-1-[2-(trifluoromethyl)pyrimidin-4-yl]pyrrolidin-3-yl]methanone] | 791 nM | 907 nM
COc1nccc(N2CC[C@@H](C(=O)N3Cc4nc(C)c(Cl)c(C)c4C3)C2)n1 [Example 25, (3-chloro-2,4-dimethyl-5,7-dihydropyrrolo[3,4-b]pyridin-6-yl)-[(3R)-1-(2-methoxypyrimidin-4-yl)pyrrolidin-3-yl]methanone] | 4770 nM | 1600 nM
COc1cc(N2CC[C@@H](C(=O)N3Cc4nc(C)c(Cl)c(C)c4C3)C2)ncn1 [Example 29, (3-chloro-2,4-dimethyl-5,7-dihydropyrrolo[3,4-b]pyridin-6-yl)-[(3R)-1-(6-methoxypyrimidin-4-yl)pyrrolidin-3-yl]methanone] | 951 nM | 591 nM
Cc1ncc(N2CC[C@@H](C(=O)N3Cc4nc(C)c(Cl)c(C)c4C3)C2)cn1 [Example 31, (3-chloro-2,4-dimethyl-5,7-dihydropyrrolo[3,4-b]pyridin-6-yl)-[(3R)-1-(2-methylpyrimidin-5-yl)pyrrolidin-3-yl]methanone] | 482 nM | 388 nM
Cc1nc2c(c(C)c1Cl)CN(C(=O)[C@@H]1CCN(c3cnc(C(F)(F)F)nc3)C1)C2 [Example 32, (3-chloro-2,4-dimethyl-5,7-dihydropyrrolo[3,4-b]pyridin-6-yl)-[(3R)-1-[2-(trifluoromethyl)pyrimidin-5-yl]pyrrolidin-3-yl]methanone] | 1940 nM | 1950 nM
Cc1nc2c(c(C)c1Cl)CN(C(=O)[C@@H]1CCN(c3cnc(C4COC4)nc3)C1)C2 [Example 34, (3-chloro-2,4-dimethyl-5,7-dihydropyrrolo[3,4-b]pyridin-6-yl)-[(3R)-1-[2-(oxetan-3-yl)pyrimidin-5-yl]pyrrolidin-3-yl]methanone] | 603 nM | 575 nM
CNc1ncc(N2CC[C@@H](C(=O)N3Cc4nc(C)c(Cl)c(C)c4C3)C2)cn1 [Example 35, (3-chloro-2,4-dimethyl-5,7-dihydropyrrolo[3,4-b]pyridin-6-yl)-[(3R)-1-[2-(methylamino)pyrimidin-5-yl]pyrrolidin-3-yl]methanone] | 817 nM | 1060 nM
Cc1nc2c(c(C)c1Cl)CN(C(=O)[C@@H]1CCN(c3cnc(N(C)C)nc3)C1)C2 [Example 36, (3-chloro-2,4-dimethyl-5,7-dihydropyrrolo[3,4-b]pyridin-6-yl)-[(3R)-1-[2-(dimethylamino)pyrimidin-5-yl]pyrrolidin-3-yl]methanone] | 1720 nM | 1800 nM
Cc1ncncc1N1CC[C@@H](C(=O)N2Cc3nc(C)c(Cl)c(C)c3C2)C1 [Example 37, (3-chloro-2,4-dimethyl-5,7-dihydropyrrolo[3,4-b]pyridin-6-yl)-[(3R)-1-(4-methylpyrimidin-5-yl)pyrrolidin-3-yl]methanone] | 405 nM | 394 nM
Cc1nc2c(c(C)c1Cl)CN(C(=O)[C@@H]1CCN(c3ccnnc3)C1)C2 [Example 38, (3-chloro-2,4-dimethyl-5,7-dihydropyrrolo[3,4-b]pyridin-6-yl)-[(3R)-1-pyridazin-4-ylpyrrolidin-3-yl]methanone] | 332 nM | 274 nM

Compounds with a lower EC50 (human M4 receptor [1]), results first:

EC50 (human M4 receptor [1]) | EC50 (human M4 receptor [2]) | SMILES
131 nM | 550 nM | Cc1nc2c(c(C)c1Cl)CN(C(=O)[C@@H]1CCN(c3ccnc(C(F)(F)F)c3)C1)C2 [Example 21, (3-chloro-2,4-dimethyl-5,7-dihydropyrrolo[3,4-b]pyridin-6-yl)-[(3R)-1-[2-(trifluoromethyl)-4-pyridyl]pyrrolidin-3-yl]methanone]
164 nM | 235 nM | Cc1nc2c(c(C)c1Cl)CN(C(=O)[C@@H]1CCN(c3ccnc(C#N)n3)C1)C2 [Example 24, 4-[(3R)-3-(3-chloro-2,4-dimethyl-5,7-dihydropyrrolo[3,4-b]pyridine-6-carbonyl)pyrrolidin-1-yl]pyrimidine-2-carbonitrile]
120 nM | 166 nM | Cc1cc(N2CC[C@@H](C(=O)N3Cc4nc(C)c(Cl)c(C)c4C3)C2)ncn1 [Example 26, (3-chloro-2,4-dimethyl-5,7-dihydropyrrolo[3,4-b]pyridin-6-yl)-[(3R)-1-(6-methylpyrimidin-4-yl)pyrrolidin-3-yl]methanone]
230 nM | 330 nM | Cc1nc2c(c(C)c1Cl)CN(C(=O)[C@@H]1CCN(c3cc(C(F)(F)F)ncn3)C1)C2 [Example 27, (3-chloro-2,4-dimethyl-5,7-dihydropyrrolo[3,4-b]pyridin-6-yl)-[(3R)-1-[6-(trifluoromethyl)pyrimidin-4-yl]pyrrolidin-3-yl]methanone]
259 nM | 350 nM | Cc1nc2c(c(C)c1Cl)CN(C(=O)[C@@H]1CCN(c3cc(C4CC4)ncn3)C1)C2 [Example 28, (3-chloro-2,4-dimethyl-5,7-dihydropyrrolo[3,4-b]pyridin-6-yl)-[(3R)-1-(6-cyclopropylpyrimidin-4-yl)pyrrolidin-3-yl]methanone]
65 nM | 59 nM | Cc1nc2c(c(C)c1Cl)CN(C(=O)[C@@H]1CCN(c3cncnc3)C1)C2 [Example 30, (3-chloro-2,4-dimethyl-5,7-dihydropyrrolo[3,4-b]pyridin-6-yl)-[(3R)-1-pyrimidin-5-ylpyrrolidin-3-yl]methanone]
242 nM | 2370 nM | COc1ncc(N2CC[C@@H](C(=O)N3Cc4nc(C)c(Cl)c(C)c4C3)C2)cn1 [Example 33, (3-chloro-2,4-dimethyl-5,7-dihydropyrrolo[3,4-b]pyridin-6-yl)-[(3R)-1-(2-methoxypyrimidin-5-yl)pyrrolidin-3-yl]methanone]
